The values below come from patent EP0727207A1, “The pharmacological use of certain cystine derivatives” (priority 1990, dated 1991).

Molecules are shown by their SMILES.

For this assay, the system named is Balb/c mice. The experiment in a line: delayed type hypersensitivity (DTH) reaction in the mouse ear, OXA-sensitized mice. The assay is classed as in vivo. To be noted: for Diff Tt24-Tt0: L-forms; for Diff Tt24-Tt0 / Diff. Tt24-Tt0 / Diff Tt48-Tt0: mean; for Diff. Tt24-Tt0: ear thickness 24 hours after challenge; for Diff Tt48-Tt0: ear thickness 48 hours after challenge. The text has this: The property of the compounds diNAC, diBUT, diVAL, diCAP, diMeNAC, diEtNAC and diMeVAL to stimulate immune responses is illustrated by their efficacy in a model of the delayed type hypersensitivity (DTH) reaction in the mouse.
Both male and female Balb/c mice obtained from Bomholtsgaard (Denmark) and Charlie Rivers (England), were used at the weight of 18-20 gram. 4-ethoxymethylene-2-phenyloxazolone (OXA) was purchased from BDH (England) and served as an antigen in this test.
The mice were sensitized, Day 0, by epicutaneous application of 150 µl absolute ethanol-acetone (3:1) solution containing 3% OXA on the shaved thorax and abdomen. Treatment with the L-form of diNAC, diMeNAC, diEtNAC, diMeVAL, or vehicle (phosphate buffer, pH 7.0) was initiated by oral feeding immediately after sensitization and continued once daily to Day 6. […] after the sensitization both ears of all mice were challenged on both sides by topical application of 20 µl 1% OXA dissolved in peanut oil. Ear thickness was measured prior to and 24 or 48 hours after challenge using an Oditest spring calliper. Challenges and measurements were performed under light pentobarbital anasthesia. The intensity of the DTH reactions was expressed according to the formula: Tt24/48-Tt0 µm units, where t0, t24 and t48 represent the ear thickness before and 24 or 48 hours after challenge, respectively, in an individual […]. The results were expressed as the mean +/-S.E.M. The level of significance between means of the groups was obtained by Student's two-tailed t-test. Tables 1 and 2 show the results from 24 and 48 hours measurements, respectively, from a representative experiment with the L-form of diNAC. […]

Where [1] appears, read: Table 3, 24 h after challenge, 0.03 µmol/kg oral.
The mark [2] stands for this setting: Table 3, 24 h after challenge, 3.0 µmol/kg oral.
Where [3] appears, read: Table 3, 48 h section, 0.03 µmol/kg oral.
The mark [4] stands for this setting: Table 3, 48 h section, 3.0 µmol/kg oral.
Where [5] appears, read: 0.03 µmol/kg oral once daily Day 0 to Day 6.
Where [6] appears, read: 0.30 µmol/kg oral once daily Day 0 to Day 6.
Setting [7] is: 3.0 µmol/kg oral once daily Day 0 to Day 6.
[8] abbreviates: 30.0 µmol/kg oral once daily Day 0 to Day 6.

In the case of `CC(=O)N[C@@H](CSSC[C@H](NC(C)=O)C(=O)O)C(=O)O` [diNAC, N,N'-diacetylcystine], for the setting “result in words”, the “immunostimulating effect in the DTH reaction in the mouse ear” value (“immunostimulating effect” below) is “highly potent and efficient immunostimulating agents”.

On to `CCCC(=O)N[C@@H](CSSC[C@H](NC(=O)CCC)C(=O)O)C(=O)O` [diBUT, N,N' - dibutyrylcystine], for which the “immunostimulating effect” value (result in words) is “highly potent and efficient immunostimulating agents”.

As for `CCCCCCCC(=O)N[C@@H](CSSC[C@H](NC(=O)CCCCCCC)C(=O)O)C(=O)O` [diCAP, N,N'-dicaprylylcystine], under “result in words”, the “immunostimulating effect” value was “highly potent and efficient immunostimulating agents”.

Consider `CC(C)CC(=O)N[C@@H](CSSC[C@H](NC(=O)CC(C)C)C(=O)O)C(=O)O` [diVAL, N,N'-diisovalerylcystine], for which the “immunostimulating effect” value (result in words) was “highly potent and efficient immunostimulating agents”.

For `CCOC(=O)[C@H](CSSC[C@H](NC(C)=O)C(=O)OCC)NC(C)=O` [diEtNAC, N,N'-diacetylcystine diethyl ester], the “Diff Tt24-Tt0” value is, setting by setting: under setting [1], 11.75 µm units; under setting [2], 13.05 µm units; under setting [3], 13.15 µm units; under setting [4], 13.20 µm units. The “immunostimulating effect” value (result in words) is “highly potent and efficient immunostimulating agents”.

Take `COC(=O)[C@H](CSSC[C@H](NC(=O)CC(C)C)C(=O)OC)NC(=O)CC(C)C` [diMeVAL, N,N'-diisovalerylcystine dimethyl ester]: the “immunostimulating effect” value (result in words) is “highly potent and efficient immunostimulating agents”.

For the compound `CC(=O)N[C@@H](CSSC[C@H](NC(C)=O)C(=O)O)C(=O)O` [L-diNAC, N,N'-diacetyl-L-cystine], the “Diff. Tt24-Tt0” value reads like this: under setting [5], 13.75 µm units; under setting [6], 15.70 µm units; under setting [7], 18.30 µm units; under setting [8], 20.67 µm units. Besides, the “Diff Tt48-Tt0” value reads like this: under setting [5], 11.65 µm units; under setting [6], 12.65 µm units; under setting [7], 14.95 µm units; under setting [8], 13.63 µm units. The “ear thickness after oral administration” value (result in words, 24 and 48 hours after challenge, oral) is “significant increase of the ear thickness in a concentration-response manner”.

Consider `COC(=O)[C@H](CSSC[C@H](NC(C)=O)C(=O)OC)NC(C)=O` [diMeNAC, N,N'-diacetylcystine dimethyl ester], for which the “Diff Tt24-Tt0” value is listed as 18.00 µm units under setting [1], 12.55 µm units under setting [2], 12.85 µm units under setting [3] and 13.35 µm units under setting [4]. Moreover, where the note is “result in words”, the “immunostimulating effect” value was “highly potent and efficient immunostimulating agents”.
